pIC50: −log10 of the molar value. Several values for one entry are separate records, joined by “and”; a condition that tells them apart may be missing. Identical values can stand only once.
Tested on: OVCAR-8 complex spheroid, growth inhibition
Test: Anticancer human tumor OVCAR-8 cell line growth inhibition [Asc];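 further: spheroids exposed to agents for 7 days before readout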;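 on viability, T/C: percent viability relative to DMSO vehicle wells taken as 100%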
Conditions: for viability, T/C: stronger effect = lower value
How it was run: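 Complex solid-tumor spheroids incorporating human endothelial and mesenchymal stem cells received single agents or combinations over half-log dilution ranges anchored to clinical Cmax.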

NC(=O)C(=Cn1cnc(-c2cc(C(F)(F)F)cc(C(F)(F)F)c2)n1)c1cncnc1 + Cc1c(S(C)(=O)=O)c(-c2cc(F)cc(N3CCN(c4ccc(NS(=O)(=O)c5ccc(NC(CCN6CCC(C(=O)OCCCP(=O)(O)O)CC6)CSc6ccccc6)c(S(=O)(=O)C(F)(F)F)c5)cc4)CC3)c2)c(-c2ccc(Cl)cc2)n1C(C)C
pIC50 (curve of first compound, second compound 0.0316 µM): < 6.52
pIC50 (curve of first compound, second compound 0.1 µM): < 6.52
pIC50 (curve of first compound, second compound 0.316 µM): 6.66
pIC50 (curve of first compound, second compound 1 µM): 6.81
pIC50 (curve of first compound, second compound 3.16 µM): 6.88
pIC50 (curve of first compound, second compound 10 µM): 6.97
viability, T/C (second compound 0.0316 µM, first compound 0.000949 µM): 107%
viability, T/C (second compound 0.0316 µM, first compound 0.003 µM): 97.1%
viability, T/C (second compound 0.0316 µM, first compound 0.00949 µM): 103%
viability, T/C (second compound 0.0316 µM, first compound 0.03 µM): 114%
viability, T/C (second compound 0.0316 µM, first compound 0.0949 µM): 89.3%
viability, T/C (second compound 0.0316 µM, first compound 0.3 µM): 55.4%
viability, T/C (second compound 0.1 µM, first compound 0.000949 µM): 103%
viability, T/C (second compound 0.1 µM, first compound 0.003 µM): 92.6%
viability, T/C (second compound 0.1 µM, first compound 0.00949 µM): 93.5%
viability, T/C (second compound 0.1 µM, first compound 0.03 µM): 102%
viability, T/C (second compound 0.1 µM, first compound 0.0949 µM): 90.4%
viability, T/C (second compound 0.1 µM, first compound 0.3 µM): 57.6%
viability, T/C (second compound 0.316 µM, first compound 0.000949 µM): 115%
viability, T/C (second compound 0.316 µM, first compound 0.003 µM): 112%
viability, T/C (second compound 0.316 µM, first compound 0.00949 µM): 101%
viability, T/C (second compound 0.316 µM, first compound 0.03 µM): 107%
viability, T/C (second compound 0.316 µM, first compound 0.0949 µM): 90.4%
viability, T/C (second compound 0.316 µM, first compound 0.3 µM): 34.8%
viability, T/C (second compound 1 µM, first compound 0.000949 µM): 119%
viability, T/C (second compound 1 µM, first compound 0.003 µM): 111%
viability, T/C (second compound 1 µM, first compound 0.00949 µM): 114%
viability, T/C (second compound 1 µM, first compound 0.03 µM): 116%
viability, T/C (second compound 1 µM, first compound 0.0949 µM): 73.8%
viability, T/C (second compound 1 µM, first compound 0.3 µM): 18.1%
viability, T/C (second compound 3.16 µM, first compound 0.000949 µM): 109%
viability, T/C (second compound 3.16 µM, first compound 0.003 µM): 104%
viability, T/C (second compound 3.16 µM, first compound 0.00949 µM): 121%
viability, T/C (second compound 3.16 µM, first compound 0.03 µM): 111%
viability, T/C (second compound 3.16 µM, first compound 0.0949 µM): 66.7%
viability, T/C (second compound 3.16 µM, first compound 0.3 µM): 6.92%
viability, T/C (second compound 10 µM, first compound 0.000949 µM): 117%
viability, T/C (second compound 10 µM, first compound 0.003 µM): 115%
viability, T/C (second compound 10 µM, first compound 0.00949 µM): 132%
viability, T/C (second compound 10 µM, first compound 0.03 µM): 127%
viability, T/C (second compound 10 µM, first compound 0.0949 µM): 55.8%
viability, T/C (second compound 10 µM, first compound 0.3 µM): 4.41%

NC(=O)C(=Cn1cnc(-c2cc(C(F)(F)F)cc(C(F)(F)F)c2)n1)c1cncnc1 + CCN1C(C(=O)NC23CCC(C(=O)O)(CC2)CC3)C(c2cccc(Cl)c2F)C2(C(=O)Nc3cc(Cl)ccc32)C12CCCCC2
pIC50 (curve of first compound, second compound 0.00949 µM): < 6.52
pIC50 (curve of first compound, second compound 0.03 µM): < 6.52
pIC50 (curve of first compound, second compound 0.0949 µM): < 6.52
pIC50 (curve of first compound, second compound 0.3 µM): < 6.52
pIC50 (curve of first compound, second compound 0.949 µM): < 6.52
pIC50 (curve of first compound, second compound 3 µM): < 6.52
viability, T/C (second compound 0.00949 µM, first compound 0.000949 µM): 98.7%
viability, T/C (second compound 0.00949 µM, first compound 0.003 µM): 100%
viability, T/C (second compound 0.00949 µM, first compound 0.00949 µM): 106%
viability, T/C (second compound 0.00949 µM, first compound 0.03 µM): 102%
viability, T/C (second compound 0.00949 µM, first compound 0.0949 µM): 81.8%
viability, T/C (second compound 0.00949 µM, first compound 0.3 µM): 66.3%
viability, T/C (second compound 0.03 µM, first compound 0.000949 µM): 96.5%
viability, T/C (second compound 0.03 µM, first compound 0.003 µM): 90.1%
viability, T/C (second compound 0.03 µM, first compound 0.00949 µM): 111%
viability, T/C (second compound 0.03 µM, first compound 0.03 µM): 89.5%
viability, T/C (second compound 0.03 µM, first compound 0.0949 µM): 82.5%
viability, T/C (second compound 0.03 µM, first compound 0.3 µM): 66.9%
viability, T/C (second compound 0.0949 µM, first compound 0.000949 µM): 88.9%
viability, T/C (second compound 0.0949 µM, first compound 0.003 µM): 102%
viability, T/C (second compound 0.0949 µM, first compound 0.00949 µM): 102%
viability, T/C (second compound 0.0949 µM, first compound 0.03 µM): 105%
viability, T/C (second compound 0.0949 µM, first compound 0.0949 µM): 80.3%
viability, T/C (second compound 0.0949 µM, first compound 0.3 µM): 65.9%
viability, T/C (second compound 0.3 µM, first compound 0.000949 µM): 93.2%
viability, T/C (second compound 0.3 µM, first compound 0.003 µM): 85.1%
viability, T/C (second compound 0.3 µM, first compound 0.00949 µM): 94%
viability, T/C (second compound 0.3 µM, first compound 0.03 µM): 101%
viability, T/C (second compound 0.3 µM, first compound 0.0949 µM): 81%
viability, T/C (second compound 0.3 µM, first compound 0.3 µM): 68.7%
viability, T/C (second compound 0.949 µM, first compound 0.000949 µM): 88.1%
viability, T/C (second compound 0.949 µM, first compound 0.003 µM): 103%
viability, T/C (second compound 0.949 µM, first compound 0.00949 µM): 102%
viability, T/C (second compound 0.949 µM, first compound 0.03 µM): 122%
viability, T/C (second compound 0.949 µM, first compound 0.0949 µM): 73.4%
viability, T/C (second compound 0.949 µM, first compound 0.3 µM): 60%
viability, T/C (second compound 3 µM, first compound 0.000949 µM): 116%
viability, T/C (second compound 3 µM, first compound 0.003 µM): 109%
viability, T/C (second compound 3 µM, first compound 0.00949 µM): 112%
viability, T/C (second compound 3 µM, first compound 0.03 µM): 115%
viability, T/C (second compound 3 µM, first compound 0.0949 µM): 80.5%
viability, T/C (second compound 3 µM, first compound 0.3 µM): 59.8%

NC(=O)C(=Cn1cnc(-c2cc(C(F)(F)F)cc(C(F)(F)F)c2)n1)c1cncnc1
viability, T/C (compound 0.000949 µM): 100% and 101% and 69.2%
viability, T/C (compound 0.003 µM): 90% and 81.8% and 98.6%
viability, T/C (compound 0.00949 µM): 99.8% and 91.2% and 111%
viability, T/C (compound 0.03 µM): 95.4% and 109% and 92.8%
pIC50 (curve of compound): < 6.52 and 7.27

— PubChem BioAssay AID1963437 (Molecular Pharmacology Branch, DTP, NCI, 2024)
